Source: patent publication US20080112968A1, “NICOTINAMIDE COMPOSITIONS FOR TREATMENT OF SKIN DISEASES AND DISORDERS” (Dermena, priority 2006, published 2008)

Legend:
[1] = Binding of pyridinium salts to sepharose immobilized heparin (spectrophotometric degree of binding); conditions: water solution incubated 5 minutes with sepharose immobilized heparin 25 mg/mL
Text: Spectrophotometric methodologies were applied to estimate a degree of binding (DB) of the investigated compounds with heparin. This method is based on the absorption measurements of water solution of the investigated compound before and after a contact with heparin. The concentration was adjusted such that the absorbance in the region near the absorption maximum was around 1. The absorption spectra was collected for these prepared solutions. The same solutions of the investigated pyridinium salts were also incubated for 5 minutes with sepharose immobilized heparin (Heparin Sepharose CL-6B, Amersham Biosciences AB, Sweden) added in amount of 25 mg/mL. The suspensions of immobilized heparin with the analyzed compounds were then placed into Eppendorf microtubes and centrifuged at 13000 g for 4 minutes. The resulting clear solution over the sediment was introduced into a cuvette, and the absorption spectrum was measured. The degree of binding was estimated based on comparison of integrated area under the absorption curve for the solutions incubated and non-contacted with heparin.
DB was calculated according to the equation (1):
where: DB=degree of binding,
IA=integrated area under absorption curve for sample without contact with immobilized heparin,
IAHEP=integrated area under absorption curve for sample incubated with immobilized heparin.

[2] = Solubility in water; type: physicochemical

SMILES: C[n+]1cccc(C(=O)[O-])c1 [Compound 7, Trigonelline]
- Degree of binding, [%] [1]: <20%

SMILES: CNC(=O)c1ccc[n+](C)c1 [Compound 2, 1,N′-Dimethylnicotinamide]
- Degree of binding, [%] [1]: 20-45%

SMILES: C[n+]1cccc(C(=O)NCO)c1 [Compound 4, 1-Methyl-N′-(hydroxymethyl)-nicotinamide]
- Degree of binding, [%] [1]: 20-45%

SMILES: CCN(CC)C(=O)c1ccc[n+](C)c1 [Compound 3, 1-Methyl-N′,N′-diethylnicotin-amide]
- Degree of binding, [%] [1]: 20-45%

SMILES: C[n+]1cccc(C(N)=O)c1 [Compound 1, 1-Methylnicotinamide]
- Degree of binding, [%] [1]: >45%
- solubility [2]: > 600 mg/mL

SMILES: CCC[n+]1cccc(C(N)=O)c1 [Compound 6, 1-Propylnicotinamide]
- Degree of binding, [%] [1]: 20-45%

SMILES: CC(=O)c1ccc[n+](C)c1 [Compound 5, 1-Methyl-3-acetylpyridine]
- Degree of binding, [%] [1]: 20-45%

SMILES: NC(=O)c1cccnc1 [Compound 8, Nicotinamide]
- Degree of binding, [%] [1]: <20%
